For data set [1], the system named is Mus musculus. In words: Hypoglycemic activity in Swiss-Webster mouse assessed as change plasma glucose level at 250 mg/kg, ip after 4 hrs. The settings on record: route intraperitoneal. The data set is classed as functional.
The test system of data set [2] is Artemia. Kind of data set: Toxicity in brine shrimp. Type of data set: organism-based. The settings on record: in vivo.
The species named for data set [3] is Homo sapiens. Kind of data set: Toxicity in patient with familial hypercholesterolemia at 750 to 2250 mg/day in 3 divided doses for 8 weeks. The settings on record: in vivo, 1344 h. The data set is classed as organism-based.
The subject of data set [4] is Mus musculus. Kind of data set: Hypoglycemic activity in Swiss-Webster mouse assessed as change plasma glucose level at 62.5 mg/kg, ip after 4 hrs. The settings on record: route intraperitoneal. Type of data set: functional.
The species entered for data set [5] is Homo sapiens. Kind of data set: Antihypercholesterolemic activity in patient with familial hypercholesterolemia assessed as decrease in plasma cholesterol at 3000 mg/day in 3 divided doses for 8 weeks. The data set is classed as functional. Also noted: scale not given: the % may be the effect or the level left.
Data set [6] is filed under the species Homo sapiens. In words: Antihypercholesterolemic activity in patient with familial hypercholesterolemia assessed as decrease in plasma cholesterol at 2250 mg/day in 3 divided doses for 8 weeks. The data set is classed as functional. Also noted: scale not given: the % may be the effect or the level left.
A short description of data set [7]: Acute toxicity in ip dosed mouse. Type of data set: organism-based. The settings on record: in vivo.
Data set [8] has as its system Mus musculus. In words: Hypoglycemic activity in Swiss-Webster mouse assessed as change plasma glucose level at 125 mg/kg, ip after 4 hrs. The data set is classed as functional. The settings on record: route intraperitoneal.
Data set [9] in a line: Acute toxicity in po dosed mouse. The data set is classed as organism-based. The settings on record: in vivo.

Structures can show the parent of a compound that is named as a salt.

Regarding `COC(=O)C(O)(CC(=O)O)CC(=O)O`, the Activity in data set [1] was -7.4%.

Regarding `CCOC(=O)C(O)(CC(=O)O)CC(=O)O`, the Activity in [1] is -6.6%.

Consider `COC(=O)CC(O)(CC(=O)OC)C(=O)OC`, for which the Activity in data set [1] was 29%.

Usually LC50 stands for the concentration lethal to half of the exposed cells or organisms. As for `COc1cc(-c2oc3cc(O[C@@H]4O[C@H](CO)[C@@H](O)[C@H](O)[C@H]4O)c(OC)c(O)c3c(=O)c2OC)cc(OC)c1O`, the Activity in data set [1] is -1%. The LC50 in [2] worked out at 420 ppm.

For `CCOC(=O)CC(O)(CC(=O)O)C(=O)OCC` (stereo not drawn), the Activity in data set [1] is reported as -17.3%.

As to `COC(=O)CC(O)(CC(=O)O)C(=O)OC` (stereo not drawn), the Activity in data set [1] was 35.8%.

Regarding `O=C(O)CC(O)(CC(=O)O)C(=O)O` [CITRIC ACID], the Activity in data set [1] came to 47.3%. This compound also gave an LC50 in data set [2] of 50 ppm.

For the compound `Cc1cn([C@H]2C[C@H](O)[C@@H](CO)O2)c(=O)[nH]c1=O` [DOXRIBTIMINE], in data set [1], the Activity is reported as 25.5%. Moreover, the LC50 in data set [2] is > 1000 ppm.

A word on the LD50: it is the dose expected to kill half of the subjects tested. Turning to `CC(O)(CC(=O)O)CC(=O)O` [MEGLUTOL], the Activity entry in [3] was “Non-toxic”; in data set [4], 7.9%; in [1], -41.7%; in [5] it was 13%; in data set [6], 11%; in data set [8] it was -21%. The LC50 in data set [2] stood at 228 ppm. Besides, the results for the LD50 in data set [7] and in data set [9] were 3230 mg/kg and 7330 mg/kg, respectively.

On to `O=C(O)CCC(=O)O` [SUCCINIC ACID], for which, in [1], the Activity amounted to 9.9%. Besides, in [2], the LC50 came to 40 ppm.

Take `CCOC(=O)CC(O)(CC(=O)OCC)C(=O)OCC` [TRIETHYL CITRATE]: the Activity in [1] is on record as -13.6%.

The record behind these values is ChEMBL document CHEMBL1159285, “Identification of 3-hydroxy-3-methylglutaric acid (HMG) as a hypoglycemic principle of Spanish moss (Tillandsia usneoides)” (J Nat Prod, 1995).
